Experimental findings from ChEMBL document CHEMBL1141272, “Eujavanicols A-C, decalin derivatives from Eupenicillium javanicum” (J Nat Prod, 2007) are described below.

The structures appear in SMILES notation. Active and inactive are the calls of the source. The rule behind the calls is not given here.

The experiment concerns Aspergillus fumigatus. The experiment is described as follows: Antifungal activity against Aspergillus fumigatus. The class given is functional, organism-based.
`CC[C@@H](C)[C@H]1C=C[C@H]2[C@H](O)[C@H](O)C[C@@H](C)[C@@H]2[C@@]1(C)C(=O)CCO`: the result was inactive.
In the case of `CC[C@@H](C)C1=CC(=O)[C@H]2[C@H](O)[C@H](O)C[C@@H](C)[C@@H]2[C@@]1(C)C(=O)CCO`, the outcome was inactive.
As for `CC[C@@H](C)[C@H]1C=C[C@H]2[C@H](O)[C@@H](O)C[C@@H](C)[C@@H]2[C@@]1(C)C(=O)CCO`, the result was inactive.
